In test [1] the test system is adenosine A2B receptor (CHO cells; single binding domain EPAC2 sensors). Nature of the test: single cell FRET, CHO cells expressing adenosine A2B receptor, EPAC2 sensors. The format is cell-based. The note with it: 24 hours after transfection, single living cells. The procedure: Transfected cells were analyzed 24 h later.
Test [2] deals with endogenous beta2-adrenergic receptors (HEK293 cells; murine HCN2 (A467-K638) sensor). The note with it: 10 μM isoproterenol. The procedure: FIG. 12. […] B. FRET measurements in living HEK293 cells stimulated with 10 μM isoproterenol via endogenous beta2-adrenergic receptors. Cells were transfected with HCN2-based (A467-K638) sensor.
Samples were excited with a light from Polychrom IV (Till Photonics). […] The imaging data were analyzed by MetaMorph 5.0r6 software (Universal Imaging Corp.) and corrected for spillover of CFP into 535 nm channel, as well as for acceptor photobleaching to give a corrected ratio F535 nm/F480 nm.

Test [3] deals with adenylyl cyclase. Nature of the test: FRET signal with direct activators of adenylyl cyclase in cells. The format is cell-based.

Turning to `Nc1ncnc2c1ncn2[C@@H]1O[C@H](CO)[C@@H](O)[C@H]1O` [adenosine], the “FRET between YFP and CFP upon adenosine” value in test [1] was “decrease of FRET”. Turning to `CC(C)NCC(O)c1ccc(O)c(O)c1` (stereo not drawn) [isoproterenol], in test [2], the “cAMP-dependent FRET change upon isoproterenol” value is “decrease in FRET”. Turning to `C=C[C@@]1(C)CC(=O)[C@]2(O)[C@@]3(C)[C@@H](O)CCC(C)(C)[C@@H]3[C@H](O)[C@H](OC(C)=O)[C@@]2(C)O1` [forskolin], the FRET-signal entry in test [3] was “detectable FRET-signal”.

For the origin of these results see patent publication US8889425B2 (Bayerische Julius-Maximilians-Universität Würzburg, priority 2003, dated 2014).
